Structures can show the parent of a compound that is named as a salt. Where two headings read alike, the source gives them in different places.
What was measured:
Format in all cases: cell-based, human
[1] = tested on: AGS (Gastric Adenocarcinoma); assay: Cell viability analysis, gastric cancer AGS; settings: for viability at 10 µM: Homo sapiens, 72 h
cancer cell lines = assay: Cell viability analysis (WST-1) on cancer cell lines; settings: drug 10 μM, 72 hours, WST-1; Table 3
[2] = tested on: HepG2 (Hepatocellular Carcinoma); assay: Cell viability analysis, hepatic cancer HepG2; settings: for viability at 10 µM: Homo sapiens, HepG2, 72 h
[3] = tested on: MCF7 (Mammary Gland, Adenocarcinoma); assay: Cell viability analysis, breast cancer MCF7; settings: for viability at 10 µM: Homo sapiens, MCF7, 72 h
[4] = tested on: PC3 (p53−) (Prostate Adenocarcinoma); assay: Cell viability analysis, prostate cancer PC3; settings: for viability at 10 µM: Homo sapiens, 72 h
[5] = tested on: LoVo (Colorectal Adenocarcinoma); assay: Cell viability analysis, colon cancer LoVo; settings: for viability at 10 µM: Homo sapiens, LoVo, 72 h, read-out: cell viability (survival rate), LoVo, drug 10 μM, 72 hours, WST-1, OD450 nm
[6] = tested on: HL-60 (Acute Promyelocytic Leukemia); assay: Cell viability analysis, leukemia HL-60; settings: for viability at 10 µM: Homo sapiens, HL-60, 72 h
[7] = tested on: MKN-45 (Gastric Adenocarcinoma); assay: Cell viability analysis, gastric cancer MKN-45; settings: for viability at 10 µM: Homo sapiens, MKN-45, 72 h
[8] = tested on: TSGH-8301 (Urinary Bladder Carcinoma); assay: Cell viability analysis, bladder cancer TSGH-8301; settings: Homo sapiens, 72 h
[9] = tested on: A549 (Lung Adenocarcinoma); assay: Cell viability analysis, lung cancer A549; settings: for viability at 10 µM: Homo sapiens, A549, 72 h
[10] = tested on: HI650 (Lung Adenocarcinoma); assay: Cell viability analysis, lung cancer HI650; settings: for viability at 10 µM: Homo sapiens, NCI-H1650, 72 h
[11] = tested on: A375 (Amelanotic Melanoma); assay: Cell viability analysis, skin cancer A375; settings: for viability at 10 µM: Homo sapiens, A-375, 72 h
[12] = tested on: HeLa (Cervix Adenocarcinoma); assay: Cell viability analysis, cervical cancer HeLa; settings: for viability at 10 µM: Homo sapiens, HeLa, 72 h
[13] = read-out: cell viability (survival rate), AGS, drug 10 μM, 72 hours, WST-1, OD450 nm
[14] = read-out: cell viability (survival rate), HepG2, drug 10 μM, 72 hours, WST-1, OD450 nm
[15] = read-out: cell viability (survival rate), MCF7, drug 10 μM, 72 hours, WST-1, OD450 nm
[16] = read-out: cell viability (survival rate), PC3, drug 10 μM, 72 hours, WST-1, OD450 nm
[17] = read-out: cell viability (survival rate), HL-60, drug 10 μM, 72 hours, WST-1, OD450 nm
[18] = read-out: cell viability (survival rate), MKN-45, drug 10 μM, 72 hours, WST-1, OD450 nm
[19] = read-out: cell viability (survival rate), TSGH, drug 10 μM, 72 hours, WST-1, OD450 nm
[20] = read-out: cell viability (survival rate), A549, drug 10 μM, 72 hours, WST-1, OD450 nm
[21] = read-out: cell viability (survival rate), H1650, drug 10 μM, 72 hours, WST-1, OD450 nm
[22] = read-out: cell viability (survival rate), A375, drug 10 μM, 72 hours, WST-1, OD450 nm
[23] = read-out: cell viability (survival rate), HeLa, drug 10 μM, 72 hours, WST-1, OD450 nm
[24] = drug 10 μM, 72 hours, WST-1, OD450 nm

Row | Molecule | viability at 10 µM [1, 13] [%] | inhibition effect on different cancer cell lines (cancer cell lines) | viability at 10 µM [2, 14] [%] | viability at 10 µM [3, 15] [%] | viability at 10 µM [4, 16] [%] | viability at 10 µM [5] [%] | viability at 10 µM [6, 17] [%] | viability at 10 µM [7, 18] [%] | viability at 10 µM [8, 19] [%] | viability at 10 µM [9, 20] [%] | viability at 10 µM [10, 21] [%] | viability at 10 µM [11, 22] [%] | viability at 10 µM [12, 23] [%] | also measured
1 | CCC(C)(C)c1ccc(CC(C)CN2C[C@@H](C)O[C@@H](C)C2)cc1 (stereo partly shown) [Amorolfine Hydrochloride] | 94.4 | significant inhibition effect | 91.6 | 104 | 104 | 99.7 | 104 | 65.1 | 88.5 | 104 | 79.6 | 98.6 | 84.6 | 
2 | C[C@@H]1[C@H](O)[C@@H](C)/C=C/C=C/C=C/C=C/C=C/C=C/C=C/[C@H](O[C@@H]2O[C@H](C)[C@@H](O)[C@H](N)[C@@H]2O)C[C@@H]2O[C@](O)(C[C@@H](O)C[C@@H](O)[C@H](O)CC[C@@H](O)C[C@@H](O)CC(=O)O[C@H]1C)C[C@H](O)[C@H]2C(=O)O [Amphotericin B (Abelcet), Amphotericin B] | 28.5 | significant inhibition effect | 90.3 | 38.9 | 66.9 | 66.5 | 116 | 44 | 56 | 45 | 61.2 | 98.9 | 84.5 | 
3 | CC(C)NCC(O)c1ccc(O)c(O)c1 (stereo not shown) [Isoprenaline hydrochloride] | 72 | significant inhibition effect | 81.4 | 73.2 | 73.6 | 80.6 | 96.8 | 79.6 | 81.6 | 56.1 | 39.9 | 90 | 91.1 | 
4 | Nc1ccc(S(=O)(=O)Nc2nccs2)cc1 [Sulfathiazole] | 54.6 | significant inhibition effect | 65.7 | 60.1 | 94.9 | 78.1 | 96.7 | 30.8 | 54.5 | 47.2 | 38.8 | 30.8 | 47.7 | 
5 | C=C[C@]1(C)C[C@@H](OC(=O)CSC(C)(C)CNC(=O)[C@H](N)C(C)C)[C@]2(C)[C@H](C)CC[C@]3(CCC(=O)[C@H]32)[C@@H](C)[C@@H]1O [Valnemulin HCl] | 75.5 | significant inhibition effect | 126 | 66.7 | 83.4 | 73.6 | 93.3 | 91.4 | 66.9 | 62.2 | 78.8 | 57.1 | 117 | 
6 | CC(C)(C)c1nc(-c2cccc(NS(=O)(=O)c3c(F)cccc3F)c2F)c(-c2ccnc(N)n2)s1 [Dabrafenib (GSK2118436), Dabrafenib] |  | significant inhibition effect |  |  |  | 70.5 |  |  |  |  |  |  |  | viability at 10 µM ([1]; drug 10 μM, 72 hours, WST-1, OD450 nm, read-out: cell viability (survival rate), AGS): 90.1%; viability at 10 µM ([2]; drug 10 μM, 72 hours, WST-1, OD450 nm, read-out: cell viability (survival rate), HepG2): 91.3%; viability at 10 µM ([3]; drug 10 μM, 72 hours, WST-1, OD450 nm, read-out: cell viability (survival rate), MCF7): 94.1%; viability at 10 µM ([4]; drug 10 μM, 72 hours, WST-1, OD450 nm, read-out: cell viability (survival rate), PC3): 100%; viability at 10 µM ([6]; drug 10 μM, 72 hours, WST-1, OD450 nm, read-out: cell viability (survival rate), HL-60): 72.9%; viability at 10 µM ([7]; drug 10 μM, 72 hours, WST-1, OD450 nm, read-out: cell viability (survival rate), MKN-45): 98.7%; viability at 10 µM ([8]; drug 10 μM, 72 hours, WST-1, OD450 nm, read-out: cell viability (survival rate), TSGH): 90.5%; viability at 10 µM ([9]; drug 10 μM, 72 hours, WST-1, OD450 nm, read-out: cell viability (survival rate), A549): 134%; viability at 10 µM ([10]; drug 10 μM, 72 hours, WST-1, OD450 nm, read-out: cell viability (survival rate), H1650): 73.6%; viability at 10 µM ([11]; drug 10 μM, 72 hours, WST-1, OD450 nm, read-out: cell viability (survival rate), A375): 42.1%; viability at 10 µM ([12]; drug 10 μM, 72 hours, WST-1, OD450 nm, read-out: cell viability (survival rate), HeLa): 78.5%
7 | Cc1cn([C@@H]2C[C@@H](O)[C@H](CO)O2)c(=O)[nH]c1=O [Telbivudine (Sebivo, Tyzeka), Telbivudine] | 27.5 | significant inhibition effect | 94.4 | 31.9 | 53.6 | 65.3 | 100 | 36.2 | 50.4 | 43.7 | 67.5 | 57.5 | 51.9 | 
8 | Tenofovir [Tenofovir (Viread)] |  | significant inhibition effect |  |  |  |  |  |  |  |  |  |  |  | cell viability (survival rate), AGS [1, 24]: 67.0; cell viability (survival rate), HepG2 [2, 24]: 99.0; cell viability (survival rate), MCF7 [3, 24]: 71.1; cell viability (survival rate), PC3 [4, 24]: 68.1; cell viability (survival rate), LoVo [5, 24]: 85.9; cell viability (survival rate), HL-60 [6, 24]: 97.6; cell viability (survival rate), MKN-45 [7, 24]: 70.9; cell viability (survival rate), A549 [9, 24]: 47.7; cell viability (survival rate), H1650 [10, 24]: 55.6; cell viability (survival rate), A375 [11, 24]: 60.6; cell viability (survival rate), HeLa [12, 24]: 95.0
9 | Nc1nc2c(ncn2COCCO)c(=O)[nH]1 [Acyclovir (Aciclovir), Acyclovir] | 77.1 | significant inhibition effect | 104 | 75.8 | 102 | 66.3 | 91.6 | 55.9 | 107 | 126 |  | 112 | 87.2 | 
10 | CCCN1CCCC[C@H]1C(=O)Nc1c(C)cccc1C [Ropivacaine HCl] | 64.3 | significant inhibition effect | 98 | 99.2 | 110 | 89.7 | 81.3 | 132 |  | 118 | 92.4 | 71.2 | 126 | 
11 | CS(=O)(=O)c1ccc([C@@H](O)[C@@H](CF)NC(=O)C(Cl)Cl)cc1 [Florfenicol] |  | significant inhibition effect | 161 | 123 | 102 | 92.9 | 109 | 117 | 86.9 | 67.8 | 87 | 88.4 | 95.1 | 
12 | CC(=O)O[C@]1(C(C)=O)CC[C@H]2[C@@H]3C=C(C)C4=CC(=O)CC[C@]4(C)[C@H]3CC[C@@]21C [Megestrol Acetate] | 84.7 | significant inhibition effect | 88.9 | 110 | 80.3 | 109 | 94 | 74.8 | 74.3 |  | 56 | 80.8 | 78.6 | 

From US10105357B2, “Indication of antibiotic drugs for preparation of cancer inhibition pharmaceutical composition” (LAUNX BIOMEDICAL CO., LTD., priority 2014, dated 2018)
